In patent US20220296566A1, “COMBINATION PRODUCT CONTAINING LIMONOID COMPOUND AND ALPHA-GLUCOSIDASE INHIBITOR” (ZHEJIANG YANGSHENGTANG INSTITUTE OF NATURAL MEDICATION CO., …, priority 2019, published 2022) one finds Blood glucose value, Insulin and Leptin data, which are given here for five compounds.

Common to all, as to assay type: in vivo
Assay [1] concerns db/db mice. The assay is described as follows: Blood glucose in mouse type II diabetes model, db/db mice (Example 4). The note with it: single agent 0.2 g/kg per day by gavage, two weeks, 1 h after last administration, mean ± SD. The source says:
(§1) Effects of limonoid compound, acarbose or combination thereof on blood glucose and insulin in mouse type II diabetes model
(§2) In the present embodiment, the limonoid compound was selected from nomilin, deacetylnomilin, nomilin acid, deacetylnomilin acid glycoside, and acarbose single administration group, nomilin single administration group, deacetylnomilin single administration group, nomilin acid single administered group, deacetylnomilin acid glycoside single administration group, and respective combination thereof with acarbose administration groups were set.
Conditions for experimental feeding: as type II diabetes model mice, 6-week-old SPF-grade db/db mice were purchased from the Nanjing Model Biology Institute, and subjected to experimental feeding after 7 days of preliminary feeding. […]
Gavage doses: nomilin at a dose of 0.2 g/kg was gavaged per day for the nomilin group, deacetylnomilin at a dose of 0.2 g/kg was gavaged per day for the deacetylnomilin group, nomilin acid at a dose of 0.2 g/kg was gavaged per day for the nomilin acid group, deacetylnomilin acid glycoside at a dose of 0.2 g/kg was gavaged per day for the deacetylnomilin acid glycoside group, acarbose at a dose of 0.2 g/kg was gavaged per day for the acarbose group, nomilin at a dose of 0.1 g/kg and acarbose at a dose of 0.1 g/kg were simultaneously gavaged per day for the nomilin combination group, nomilin acid at a dose of 0.1 g/kg and acarbose at a dose of 0.1 g/kg were simultaneously gavaged per day for the nomilin acid combination group, deacetylnomilin at a dose of 0.1 g/kg and acarbose at a dose of 0.1 g/kg were simultaneously gavaged per day for the deacetylnomilin combination group, deacetylnomilin acid glycoside at a dose of 0.1 g/kg and acarbose at a dose of 0.1 g/kg were simultaneously gavaged per day for the deacetylnomilin acid glycoside combination group, the gavage volume was 10 mL/kg, and the normal group and the model group were administrated with 10 mL/kg of distilled water. […] The data were expressed as mean and standard deviation. […]

Assay [2] has as its system db/db mice. In words: Serum insulin by Elisa in db/db mice (Example 4). The note with it: single agent 0.2 g/kg per day by gavage, two weeks, mean ± SD.
Excerpt: as §1, §2
Conditions for experimental feeding: as type II diabetes model mice, 6-week-old SPF-grade db/db mice were purchased from the Nanjing Model Biology Institute, and subjected to experimental feeding after 7 days of preliminary feeding. It should be noted that the conditions for raising the mice were as follows: the temperature was 23±1° C., the humidity was 55±10%, the lights were turned on between 7 am and 7 pm (the lights were turned off at other time), and the mice were allowed to freely take in water and feed. The experimental feed was mouse growth-stable feed (GB M2118), and the daily feeding and management of the animals were under the responsibility of the animal security department, which provided the animals with sufficient diet and fresh drinking water daily. […]

In the next assay the test system is STZ mice. In words: Blood glucose in mouse type II diabetes model with pancreatic islet damage and obesity, STZ plus high-fat diet (Example 5). The note with it: STZ + high-fat diet ICR mice; single agent 0.5 g/kg per day by gavage, two weeks; 1 h after last administration; mean ± SD. The source says: Effects of limonoid compound, acarbose or combination thereof on blood glucose in mouse type II diabetes model with pancreatic islet damage and obesity
In this example, a mouse model of type II diabetes with pancreatic islet damage and obesity was established by multiple modeling ICR mice with a small dose of streptozotocin (STZ), following with continuous high-fat diets (referring to literature: Zhang Jiyuan et al, Study on the effect of three plant extracts on improving glucose and lipid metabolism in type 2 diabetic mice, Food and Machinery, 2016, 32 (12): 142-147). […]
Experimental grouping: 15 male mice were randomly selected as the normal control group, and the remaining mice were subjected to a high-fat diet (high-fat diet formula: cholesterol 1%, egg yolk powder 10%, lard oil 10%, and basic feed 79%, for establishing an obesity mouse model) for consecutive 4 weeks and intraperitoneal injection of STZ at a dose of 35mg/kg for three consecutive days. After one week, the mice were subject to 24 hours of fasting and water deprivation, their fasting blood glucose was measured, and the mice with a blood glucose level of 15 to 25 mmol/L were selected and undifferentiatedly grouped and used in the experiment, continuously subjected to the high-fat diet, 15 mice in each group, and subjected to blood sampling and detection of indicators after 2 weeks of administration. […]

Assay [3] has as its system db/db mice. In words: Blood glucose in mouse type II diabetes model, db/db mice (Example 2). To be noted: single agent 0.04 g/kg per day by gavage, two weeks, 1 h after last administration, mean ± SD. An excerpt: (§3) Effects of limonoid compound, acarbose or combination thereof on blood glucose and leptin in mouse type II diabetes model
(§4) In the present example, db/db mice (line name BKS.Cg-Dock7^m+/+Lepr^db/Nju) were used to perform hypoglycemic efficacy evaluation test of animals (blood glucose level and leptin). The limonoid compound was selected from obacunone, isoobacunoic acid and obacunone glycoside, and acarbose single administration group, obacunone single administration group, isoobacunoic acid single administration group, obacunone glycoside single administered group, and respective combination thereof with acarbose administration groups were set.
(§5) Conditions for experimental feeding: as type II diabetes model mice, 6-week-old SPF-grade db/db mice were purchased from the Nanjing Model Biology Institute, and subjected to experimental feeding after 7 days of preliminary feeding. It should be noted that the conditions for raising the mice were as follows: the temperature was 23±1° C., the humidity was 55±10%, the lights were turned on between 7 am and 7 pm (the lights were turned off at other time), and the mice were allowed to freely take in water and feed. […]

In assay [4] the test system is db/db mice. The assay is described as follows: Serum leptin by Elisa in db/db mice (Example 2). To be noted: single agent 0.04 g/kg per day by gavage, two weeks, mean ± SD.
Excerpt: as §3, §4, §5

In the case of `CC(=O)O[C@H]1CC(=O)OC(C)(C)[C@@H]2CC(=O)[C@]3(C)[C@H](CC[C@@]4(C)[C@H](c5ccoc5)OC(=O)[C@H]5O[C@]543)[C@@]12C` [Nomilin, nomilin], in the assay on db/db mice [1], the Blood glucose value was 10.1 ± 3.9 mmol/L.
In the case of nomilin acid, the Insulin in the assay on db/db mice [2] was 8.08 ± 1.49 pg/mL.
For `CC(=O)O[C@@H]1CC(=O)OC(C)(C)[C@@H]2CC(=O)[C@]3(C)[C@H](CC[C@@](C)(C(O[C@@H]4O[C@H](CO)[C@@H](O)[C@H](O)[C@H]4O)c4ccoc4)C34OC4C(=O)O)[C@@]12C` (stereo partly drawn) [Nomilin glycoside, nomilin glycoside], the Blood glucose value with STZ mice stood at 12.8 ± 2.9 mmol/L.
With `CC1(C)OC(=O)C[C@H](O)[C@]2(C)[C@H]3CC[C@@]4(C)[C@H](c5ccoc5)OC(=O)[C@H]5O[C@]54[C@]3(C)C(=O)C[C@@H]12` [Deacetylnomilin, deacetylnomilin], the Blood glucose value in the assay on db/db mice [1] stood at 11.9 ± 2.9 mmol/L.
Turning to `CC1(C)OC(=O)C=C[C@]2(C)[C@H]3CC[C@@](C)([C@@H](O[C@@H]4O[C@H](CO)[C@@H](O)[C@H](O)[C@H]4O)c4ccoc4)[C@@]4(O[C@@H]4C(=O)O)[C@]3(C)C(=O)C[C@@H]12` [Obacunone glycoside, obacunone glycoside], the Blood glucose value with db/db mice [3] is reported as 13.7 ± 2.9 mmol/L. Further, the Leptin in the assay on db/db mice [4] is 28.55 ± 4.00 pg/mL.
